“And” between values parts separate entries of the source, which are not always exact repeats. Identical values can stand only once.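 How tested: cells in 96-well plates exposed to compound for 48 hours at five concentrations. GI50 = concentration required for 50% inhibition of growth. TGI: concentration producing complete growth inhibition.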
Experiments:
Test in all cases: NCI-60 cell line screen, 48 h
ACHN renal = tested on: ACHN renal
HL-60(TB) leukemia = tested on: HL-60(TB) leukemia
HOP-62 NSCLC = tested on: HOP-62 NSCLC
M14 melanoma = tested on: M14 melanoma
NCI-H23 lung = tested on: NCI-H23 lung
OVCAR-3 ovarian = tested on: OVCAR-3 ovarian
OVCAR-8 ovarian = tested on: OVCAR-8 ovarian
SF-295 CNS = tested on: SF-295 CNS
SR leukemia = tested on: SR leukemia
U251 CNS = tested on: U251 CNS

O=[N+]([O-])C(=C(N1CCCCC1)N1CCCCC1)/C(Cl)=C(\Cl)Br
TGI (ACHN renal): 79.5 µM
TGI (HL-60(TB) leukemia): 37.9 µM
TGI (HOP-62 NSCLC): > 100 µM
TGI (M14 melanoma): 59.1 µM
TGI (NCI-H23 lung): 41.2 µM
TGI (OVCAR-3 ovarian): 81.4 µM
TGI (OVCAR-8 ovarian): 35 µM
TGI (SF-295 CNS): > 100 µM
TGI (SR leukemia): 30.9 µM
TGI (U251 CNS): 56.3 µM

CC(C)=CCc1c2c(c3occ(-c4ccc(O)c(O)c4)c(=O)c3c1O)C=CC(C)(C)O2
TGI (ACHN renal): 6.29 µM
TGI (HL-60(TB) leukemia): 0.246 µM
TGI (HOP-62 NSCLC): 4.4 µM
TGI (M14 melanoma): 3.5 µM
TGI (NCI-H23 lung): 3.84 µM
TGI (OVCAR-3 ovarian): 3.59 µM
TGI (OVCAR-8 ovarian): 9.31 µM
TGI (SF-295 CNS): 12.8 µM
TGI (SR leukemia): 2.12 µM
TGI (U251 CNS): 2.8 µM

CN(C)c1nc(=NCc2ccncc2)ss1
TGI (ACHN renal): 18.7 µM
GI50 (HL-60(TB) leukemia): 14.2 µM
TGI (HL-60(TB) leukemia): 47 µM
GI50 (HOP-62 NSCLC): > 100 µM
TGI (HOP-62 NSCLC): > 100 µM
TGI (M14 melanoma): 36.1 µM
TGI (NCI-H23 lung): 38.2 µM
TGI (OVCAR-3 ovarian): > 82.3 µM
TGI (OVCAR-8 ovarian): 34.6 µM
TGI (SF-295 CNS): > 100 µM
GI50 (SR leukemia): 19 µM
TGI (SR leukemia): 44.6 µM
TGI (U251 CNS): 32.1 µM

CCSC1=CC(=O)c2nc3ccccc3c3ccnc1c23
TGI (ACHN renal): > 44.7 µM
TGI (HL-60(TB) leukemia): 7.74 µM
TGI (HOP-62 NSCLC): > 51.3 µM
TGI (M14 melanoma): 6.15 µM
TGI (NCI-H23 lung): 11.4 µM
TGI (OVCAR-3 ovarian): > 23.1 µM
TGI (OVCAR-8 ovarian): > 100 µM
TGI (SF-295 CNS): 31 µM
TGI (SR leukemia): 15.5 µM
TGI (U251 CNS): 14.5 µM

COc1ccc(N2C(=O)c3c4c(c5c([nH]c6ncccc65)c3C2=O)CCC(C(C)(C)C)C4)cc1 (centres undefined)
TGI (ACHN renal): > 100 µM
TGI (HL-60(TB) leukemia): > 100 µM
TGI (HOP-62 NSCLC): > 100 µM
TGI (M14 melanoma): > 100 µM
TGI (NCI-H23 lung): > 100 µM
TGI (OVCAR-3 ovarian): > 100 µM
TGI (OVCAR-8 ovarian): > 100 µM
TGI (SF-295 CNS): > 100 µM
TGI (SR leukemia): > 100 µM
TGI (U251 CNS): 98 µM

CC(C)(C)NC(=O)[C@H]1CC[C@H]2[C@@H]3CC=C4NC(=O)CC[C@]4(C)[C@H]3CC[C@]12C
TGI (ACHN renal): > 100 µM
TGI (HL-60(TB) leukemia): > 100 µM
TGI (HOP-62 NSCLC): > 100 µM
TGI (M14 melanoma): > 100 µM
TGI (NCI-H23 lung): > 100 µM
TGI (OVCAR-3 ovarian): > 100 µM
TGI (OVCAR-8 ovarian): > 100 µM
TGI (SF-295 CNS): > 100 µM
TGI (SR leukemia): > 100 µM
TGI (U251 CNS): > 100 µM

CC(C)(C)C1=Cc2cc3cc(C(C)(C)C)[nH]c(=O)c3cc2S(=O)(=O)N1
TGI (ACHN renal): 89.3 µM
TGI (HL-60(TB) leukemia): 43.1 µM
TGI (HOP-62 NSCLC): 63 µM
TGI (M14 melanoma): 29.7 µM
TGI (NCI-H23 lung): 85.3 µM
TGI (OVCAR-3 ovarian): 59.3 µM
TGI (OVCAR-8 ovarian): > 100 µM
TGI (SF-295 CNS): 94.4 µM
TGI (SR leukemia): 61.5 µM
TGI (U251 CNS): 34 µM

NC(CSCc1ccccc1)C(=O)O (centres undefined)
TGI (ACHN renal): > 100 µM
TGI (HL-60(TB) leukemia): > 100 µM
TGI (HOP-62 NSCLC): > 100 µM
TGI (M14 melanoma): > 100 µM
TGI (NCI-H23 lung): > 100 µM
TGI (OVCAR-3 ovarian): > 100 µM
TGI (OVCAR-8 ovarian): > 100 µM
TGI (SF-295 CNS): > 100 µM
TGI (SR leukemia): > 100 µM
TGI (U251 CNS): > 100 µM

CCOP(=O)(OCC)C1C(CO)OC(n2ccc(=O)[nH]c2=O)C1O (centres undefined)
TGI (ACHN renal): > 100 µM
TGI (HL-60(TB) leukemia): > 100 µM
TGI (HOP-62 NSCLC): > 100 µM
TGI (M14 melanoma): > 100 µM
TGI (OVCAR-3 ovarian): > 100 µM
TGI (OVCAR-8 ovarian): > 100 µM
TGI (SF-295 CNS): > 100 µM
TGI (SR leukemia): > 100 µM

Cc1ccccc1OC(C)C(=O)NN1C(=O)CC(=O)N(c2ccc(Cl)cc2)C1=S (centres undefined)
TGI (ACHN renal): > 100 µM
TGI (HL-60(TB) leukemia): 39.8 µM
TGI (HOP-62 NSCLC): > 100 µM
TGI (M14 melanoma): > 100 µM
TGI (NCI-H23 lung): > 100 µM
TGI (OVCAR-3 ovarian): > 100 µM
TGI (OVCAR-8 ovarian): > 100 µM
TGI (SF-295 CNS): > 100 µM
TGI (SR leukemia): 84.1 µM
TGI (U251 CNS): > 100 µM

C=C(Cl)/C(=C\Cl)CCC(Br)C(C)C (centres undefined)
TGI (ACHN renal): > 100 µM
TGI (HL-60(TB) leukemia): > 100 µM
TGI (HOP-62 NSCLC): > 100 µM
TGI (M14 melanoma): > 100 µM
TGI (NCI-H23 lung): > 100 µM
TGI (OVCAR-3 ovarian): > 100 µM
TGI (SF-295 CNS): > 100 µM
TGI (SR leukemia): > 100 µM
TGI (U251 CNS): > 100 µM

CCN(CC)CCNc1ccc2nnn3c4ccc(OC)cc4c(=O)c1c23
TGI (ACHN renal): 21.7 µM
TGI (HL-60(TB) leukemia): 22.3 µM
TGI (HOP-62 NSCLC): 23.8 µM
TGI (M14 melanoma): 23.5 µM
TGI (NCI-H23 lung): 20.9 µM
TGI (OVCAR-3 ovarian): 31.4 µM
TGI (OVCAR-8 ovarian): 19.9 µM
TGI (SF-295 CNS): 18.6 µM
TGI (SR leukemia): 7.21 µM
TGI (U251 CNS): 22.3 µM

OC[C@@H](O)[C@H]1NC[C@@H](O)[C@H]1O
TGI (ACHN renal): > 100 µM
TGI (HL-60(TB) leukemia): > 100 µM
TGI (HOP-62 NSCLC): > 100 µM
TGI (M14 melanoma): > 100 µM
TGI (NCI-H23 lung): > 100 µM
TGI (OVCAR-3 ovarian): > 100 µM
TGI (OVCAR-8 ovarian): > 100 µM
TGI (SF-295 CNS): > 100 µM
TGI (SR leukemia): > 100 µM
TGI (U251 CNS): > 100 µM

COC(=O)NN(C(=O)OC)c1c(-c2ccccc2)nc(SC)n1N
TGI (ACHN renal): > 100 µM
TGI (HL-60(TB) leukemia): > 100 µM
TGI (HOP-62 NSCLC): > 100 µM
TGI (M14 melanoma): > 100 µM
TGI (NCI-H23 lung): > 100 µM
TGI (OVCAR-3 ovarian): > 100 µM
TGI (OVCAR-8 ovarian): > 100 µM
TGI (SF-295 CNS): > 100 µM
TGI (SR leukemia): > 100 µM
TGI (U251 CNS): > 100 µM

O=C(Nc1cccc2cnccc12)c1cc2c(cc1Cl)Sc1nccn1S2(=O)=O
TGI (ACHN renal): 77.9 µM
TGI (HL-60(TB) leukemia): 21.8 µM
TGI (HOP-62 NSCLC): 39.7 µM
TGI (M14 melanoma): > 100 µM
TGI (NCI-H23 lung): 28.6 µM
TGI (OVCAR-3 ovarian): 56.7 µM
TGI (OVCAR-8 ovarian): 62.7 µM
TGI (SF-295 CNS): 43.5 µM
TGI (SR leukemia): 48.9 µM
TGI (U251 CNS): 32.1 µM

C[n+]1c(-c2ccccc2)cc2/c(=C\c3ccc([N+](=O)[O-])cc3)c3ccccc3n21
TGI (ACHN renal): > 38.5 µM
TGI (HL-60(TB) leukemia): 3.07 µM
TGI (HOP-62 NSCLC): 19.3 µM
TGI (M14 melanoma): > 37.6 µM
TGI (NCI-H23 lung): 13.6 µM
TGI (OVCAR-3 ovarian): 15.5 µM
TGI (OVCAR-8 ovarian): > 26 µM
TGI (SF-295 CNS): 21.4 µM
TGI (SR leukemia): > 41.7 µM
TGI (U251 CNS): 19.8 µM

C=C1C(=O)OC2/C=C(\CO)C(OC(C)=O)CC(O)/C(C)=C/C(OC(=O)C(C)CC)C12 (centres undefined)
TGI (ACHN renal): 56.7 µM and 72.7 µM
TGI (HL-60(TB) leukemia): 39.6 µM and 30.9 µM
TGI (HOP-62 NSCLC): > 100 µM
TGI (M14 melanoma): 31.1 µM and 33.3 µM
TGI (NCI-H23 lung): 32.1 µM and 59.9 µM
TGI (OVCAR-3 ovarian): 33.4 µM and 30.6 µM
TGI (OVCAR-8 ovarian): 36.4 µM and 52.1 µM
TGI (SF-295 CNS): > 100 µM
TGI (SR leukemia): 39.2 µM
TGI (U251 CNS): > 91.6 µM and 66.3 µM

O=C1NCCCc2nonc21
TGI (ACHN renal): > 100 µM
TGI (HL-60(TB) leukemia): > 100 µM
TGI (HOP-62 NSCLC): > 100 µM
TGI (M14 melanoma): > 100 µM
TGI (NCI-H23 lung): > 100 µM
TGI (OVCAR-3 ovarian): > 100 µM
TGI (OVCAR-8 ovarian): > 100 µM
TGI (SF-295 CNS): > 100 µM
TGI (SR leukemia): > 100 µM
TGI (U251 CNS): > 100 µM

CSCCC(NCc1c(O)ccc2c(-c3ccccc3)cc(=O)oc12)C(=O)O (centres undefined)
TGI (ACHN renal): > 100 µM
TGI (HL-60(TB) leukemia): > 100 µM
TGI (HOP-62 NSCLC): > 100 µM
TGI (M14 melanoma): > 100 µM
TGI (NCI-H23 lung): > 100 µM
TGI (OVCAR-3 ovarian): > 100 µM
TGI (OVCAR-8 ovarian): > 100 µM
TGI (SF-295 CNS): > 100 µM
TGI (SR leukemia): > 100 µM
TGI (U251 CNS): > 100 µM

CCC(C(=O)O)c1ccc(OCc2ccccc2)cc1 (centres undefined)
TGI (ACHN renal): > 100 µM
TGI (HL-60(TB) leukemia): > 100 µM
TGI (HOP-62 NSCLC): > 100 µM
TGI (M14 melanoma): > 100 µM
TGI (NCI-H23 lung): > 100 µM
TGI (OVCAR-3 ovarian): > 100 µM
TGI (SF-295 CNS): > 100 µM
TGI (SR leukemia): > 100 µM
TGI (U251 CNS): > 100 µM

Source: PubChem BioAssay (NCI)
